Earlier results on two compounds are cited in US20060211664A1, “Method for treating erectile dysfunction and increasing libido in men” (priority 2002, published 2006).

Structures can show the parent of a compound that is named as a salt.

In data set [1] the test system is sex hormone binding globulin (SHBG) and albumin. Conditions: blood.
In data set [2] the target is sex hormone binding globulin (SHBG) and albumin (Homo sapiens, UniProt P02768). Conditions: in men.
Data set [3] addresses T1, sex hormone binding globulin (SHBG) and albumin (Homo sapiens, UniProt P04278).
T1 sequence (P04278 30-402): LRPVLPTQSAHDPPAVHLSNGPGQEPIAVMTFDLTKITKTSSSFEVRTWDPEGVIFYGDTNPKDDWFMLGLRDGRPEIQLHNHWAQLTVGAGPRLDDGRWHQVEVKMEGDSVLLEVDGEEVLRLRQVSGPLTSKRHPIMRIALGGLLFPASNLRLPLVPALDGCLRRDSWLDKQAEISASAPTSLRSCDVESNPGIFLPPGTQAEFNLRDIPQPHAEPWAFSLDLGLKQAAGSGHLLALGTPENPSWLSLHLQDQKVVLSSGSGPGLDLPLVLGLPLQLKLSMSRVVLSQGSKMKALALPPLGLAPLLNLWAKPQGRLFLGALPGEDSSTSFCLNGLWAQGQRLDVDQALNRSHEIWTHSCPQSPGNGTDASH
Conditions: in men, high-affinity.

The subject of data set [4] is isolated human corpus cavernosum.

Chain of sex hormone binding globulin (SHBG) and albumin (Homo sapiens, UniProt P02768) (P02768 25-609): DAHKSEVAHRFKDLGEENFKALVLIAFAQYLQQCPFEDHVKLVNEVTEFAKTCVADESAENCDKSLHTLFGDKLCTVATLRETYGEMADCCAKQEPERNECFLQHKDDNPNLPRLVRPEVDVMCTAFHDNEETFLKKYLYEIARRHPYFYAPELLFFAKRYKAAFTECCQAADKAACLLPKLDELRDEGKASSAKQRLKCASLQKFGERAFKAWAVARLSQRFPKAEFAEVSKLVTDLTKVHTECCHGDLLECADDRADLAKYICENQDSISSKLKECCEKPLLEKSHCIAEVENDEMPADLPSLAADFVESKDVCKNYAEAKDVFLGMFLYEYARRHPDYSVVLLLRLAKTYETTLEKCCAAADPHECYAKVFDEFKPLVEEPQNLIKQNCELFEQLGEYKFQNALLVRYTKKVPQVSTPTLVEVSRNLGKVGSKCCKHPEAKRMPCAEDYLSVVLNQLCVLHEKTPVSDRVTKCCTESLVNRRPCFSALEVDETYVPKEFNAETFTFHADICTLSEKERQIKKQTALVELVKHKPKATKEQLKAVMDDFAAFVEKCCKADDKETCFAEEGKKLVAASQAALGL

Take `C[C@]12CC[C@H]3[C@@H](CCC4=CC(=O)CC[C@@]43C)[C@@H]1CC[C@@H]2O` [Testosterone, testosterone]: the “testosterone in the blood bound to protein” value in data set [1] is on record as 98%. Further, in data set [2], the “share of the binding bound weakly to albumin” value is reported as 60%. In data set [3], the “share of the binding to sex hormone binding globulin (SHBG)” value is listed as “approximately 40%”.
For `CCCc1nn(C)c2c(=O)[nH]c(-c3cc(S(=O)(=O)N4CCN(C)CC4)ccc3OCC)nc12` [VIAGRA®, sildenafil citrate USP], in data set [4], the “direct relaxant effect on isolated human corpus cavernosum” value is “no direct relaxant effect”.
